# Laboratory results from ChEMBL document CHEMBL4613324, “Design, Synthesis, and Evaluation of a Series of Novel Super Long-Acting DPP-4 Inhibitors for the Treatment of Type 2 Diabetes” (J Med Chem, 2020).
# Active and inactive are the calls of the source. No cut-off for these calls is given here.
# Tests used:
# [1] = Cmax in ICR mouse at 2 mg/kg, po measured after 0.0833 to 120 hrs by LC-MS-MS analysis; format: ADME, organism-based; parameters: dose 2 mg/kg, route oral; conditions: in vivo
# [2] = Intrinsic clearance in mouse liver microsomes at 0.5 uM incubated for 0.5 to 60 mins by LC-MS/MS analysis; format: ADME, Microsome; conditions: read-out: CLH
# [3] = Oral bioavailability in ICR mouse at 2 mg/kg measured after 0.0833 to 120 hrs by LC-MS-MS analysis; format: ADME, organism-based; conditions: in vivo
# [4] = Half life in ICR mouse at 2 mg/kg, po measured after 0.0833 to 120 hrs by LC-MS-MS analysis; format: ADME, organism-based; conditions: in vivo
# [5] = AUC (0 to t) in ICR mouse at 2 mg/kg, po measured after 0.0833 to 120 hrs by LC-MS-MS analysis; format: ADME, organism-based; parameters: time upper 120 hr, time lower 0.083 hr, dose 2 mg/kg, route oral; conditions: in vivo
# [6] = Half life in ICR mouse at 0.5 mg/kg, iv measured after 0.0833 to 120 hrs by LC-MS-MS analysis; format: ADME, organism-based; conditions: in vivo
# [7] = Clearance in ICR mouse at 0.5 mg/kg, iv measured after 0.0833 to 120 hrs by LC-MS-MS analysis; format: ADME, organism-based; conditions: in vivo
# [8] = Volume of distribution at steady state in ICR mouse at 0.5 mg/kg, iv measured after 0.0833 to 120 hrs by LC-MS-MS analysis; format: ADME, organism-based; conditions: in vivo, read-out: Vdss
# [9] = Toxicity in ob/ob mouse assessed as induction of body weight gain at 30 mg/kg, po dosed once every three days for 31 days; format: organism-based; conditions: in vivo, 744 h
# Mus musculus [10] = experiment: Antidiabetic activity in ob/ob mouse assessed as reduction in random blood glucose levels at 30 mg/kg, po dosed once every three days for 31 days; format: functional, organism-based
# Mus musculus [11] = experiment: Antidiabetic activity in ob/ob mouse assessed as reduction in decrease in HbA1c level at 30 mg/kg, po dosed once every three days for 31 day relative to control; format: functional; parameters: scale not given: the % may be the effect or the level left
# [12] = biological target: Dipeptidyl peptidase 4 (Mus musculus) (UniProt P28843); experiment: Ex-vivo inhibition of DPP4 in plasma isolated from ob/ob mouse assessed as time duration during which DPP4 inhibition rate stays above 80% treated at 30 mg/kg, po measured after 2 to 72 hrs by fluorescence based assay; format: functional, organism-based
# Chain of Dipeptidyl peptidase 4 (Mus musculus) (P28843 whole entry, looked up): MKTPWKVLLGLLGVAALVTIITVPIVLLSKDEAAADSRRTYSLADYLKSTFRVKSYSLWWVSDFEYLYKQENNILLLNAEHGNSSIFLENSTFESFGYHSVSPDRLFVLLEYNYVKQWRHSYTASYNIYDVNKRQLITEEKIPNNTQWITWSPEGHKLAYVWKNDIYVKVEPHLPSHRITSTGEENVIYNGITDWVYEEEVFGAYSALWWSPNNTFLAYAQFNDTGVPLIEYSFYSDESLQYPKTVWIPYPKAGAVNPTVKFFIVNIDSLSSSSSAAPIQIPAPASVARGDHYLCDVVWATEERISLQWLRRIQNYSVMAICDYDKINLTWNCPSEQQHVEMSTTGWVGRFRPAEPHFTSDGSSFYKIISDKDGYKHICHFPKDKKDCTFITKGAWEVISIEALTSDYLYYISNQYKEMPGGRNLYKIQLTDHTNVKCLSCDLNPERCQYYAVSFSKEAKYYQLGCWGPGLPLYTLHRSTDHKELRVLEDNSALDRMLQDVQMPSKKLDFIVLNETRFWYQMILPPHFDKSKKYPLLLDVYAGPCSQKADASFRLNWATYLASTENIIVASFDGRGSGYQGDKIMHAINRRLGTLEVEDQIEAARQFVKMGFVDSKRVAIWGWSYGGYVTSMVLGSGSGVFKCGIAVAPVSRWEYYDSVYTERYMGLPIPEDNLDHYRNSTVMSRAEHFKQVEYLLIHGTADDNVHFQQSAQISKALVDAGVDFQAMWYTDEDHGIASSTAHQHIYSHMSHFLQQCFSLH
# Mus musculus [13] = experiment: Antidiabetic activity in ob/ob mouse assessed as reduction in decrease in HbA1c level at 3 to 30 mg/kg, po dosed once every three days for 31 day; format: functional, organism-based
# [14] = biological target: Dipeptidyl peptidase 4 (Mus musculus) (UniProt P28843); experiment: Ex-vivo inhibition of DPP4 in plasma isolated from ob/ob mouse treated at 30 mg/kg, po measured after 2 to 72 hrs by fluorescence based assay; format: functional, organism-based
Cmax [1] [ng/mL],microsomal CLint at 0.5 µM [2] [µL/min/mg],bioavailability [3] [%],half-life [4] [h],AUC(0-t) [5] [ng·h/mL],half-life [6] [h],clearance [7] [mL/min/kg],Vd [8] [L/kg],TIME [12] [h],inhibition [14],SMILES,Activity [9],Activity (Mus musculus [10]),Activity (Mus musculus [11]) [%],Activity (Mus musculus [13])
1580,1.2,45.4,19.2,23500,20.9,0.645,0.957,,,CS(=O)(=O)n1cc2c(n1)CN([C@H]1CO[C@H](c3cc(F)ccc3F)[C@@H](N)[C@H]1F)C2,,,,
999,1.17,114,20,26500,19.7,1.44,2.27,,,CS(=O)(=O)n1cc2c(n1)CN([C@@H]1C[C@H](N)[C@@H](c3cc(F)c(F)cc3F)O[C@@H]1C(F)(F)F)C2,,,,
798,1.89,95,4.65,4100,3.05,7.39,1.65,18,Active,CS(=O)(=O)n1cc2c(n1)CN([C@H]1CO[C@H](c3cc(F)ccc3F)[C@@H](N)C1)C2 [OMARIGLIPTIN],Toxic,Active,13.6,Active
